# Results published in patent publication US12077503B2, “Substituted cyclic amides and their use as herbicides” (FMC CORPORATION, priority 2015, dated 2024).
# Key:
# Type in all cases: in vivo
# Kochia (Kochia scoparia) [1] = test: Test A preemergence; conditions: for Plant response rating, Kochia: 125 g ai/ha, preemergence, 0 to 100 scale (0 no effect, 100 complete control); for Kochia plant response rating (0 to 100 scale, 0 is no effect, 100 is complete control): Preemergence, 500 g ai/ha, visual injury approx. 10 d
# Method in brief: (§1)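 Visual injury, scored on a 0–100 scale relative to untreated controls, was recorded about 10 d after application. Treatments were a preemergence soil spray over planted seeds or a postemergence spray on plants at the one- to two-leaf stage, 2 to 10 cm tall, all in loam soil–sand blend in the greenhouse.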
# [2] = test system: barnyardgrass (Echinochloa crus-galli); test: Test A preemergence; conditions: for Plant response rating, Barnyardgrass: 125 g ai/ha, preemergence, 0 to 100 scale (0 no effect, 100 complete control); for Barnyardgrass plant response rating (0 to 100 scale, 0 is no effect, 100 is complete control): Preemergence, 500 g ai/ha, visual injury approx. 10 d
# Method in brief: as §1
# [3] = test system: giant foxtail (Setaria faberii); test: Test A preemergence; conditions: for Plant response rating, Foxtail, Giant: 125 g ai/ha, preemergence, 0 to 100 scale (0 no effect, 100 complete control); for Foxtail, Giant plant response rating (0 to 100 scale, 0 is no effect, 100 is complete control): Preemergence, 500 g ai/ha, visual injury approx. 10 d
# Method in brief: as §1
# [4] = test system: pigweed (Amaranthus retroflexus); test: Test A preemergence; conditions: Preemergence; for Plant response rating, Pigweed: 125 g ai/ha, visual injury after approximately 10 d, 0 to 100 scale where 0 is no effect and 100 is complete control; for Pigweed plant response rating (0 to 100 scale, 0 is no effect, 100 is complete control): 500 g ai/ha, visual injury approx. 10 d
# [5] = test system: ragweed (common ragweed, Ambrosia elatior); test: Test A preemergence; conditions: Preemergence; for Plant response rating, Ragweed: 125 g ai/ha, visual injury after approximately 10 d, 0 to 100 scale where 0 is no effect and 100 is complete control; for Ragweed plant response rating (0 to 100 scale, 0 is no effect, 100 is complete control): 500 g ai/ha, visual injury approx. 10 d
# Method in brief: as §1
# [6] = test system: ryegrass, Italian (Italian ryegrass, Lolium multiflorum); test: Test A preemergence; conditions: Preemergence; for Plant response rating, Ryegrass, Italian: 125 g ai/ha, visual injury after approximately 10 d, 0 to 100 scale where 0 is no effect and 100 is complete control; for Ryegrass, Italian plant response rating (0 to 100 scale, 0 is no effect, 100 is complete control): 500 g ai/ha, visual injury approx. 10 d
# Method in brief: as §1
# [7] = test system: Galium (catchweed bedstraw, Galium aparine); test: Test A postemergence; conditions: for Galium plant response rating: 125 g ai/ha, postemergence, visual injury rating on 0 to 100 scale (0 no effect, 100 complete control), approx. 10 d; for Plant response rating, Galium: Postemergence, 500 g ai/ha, 0 to 100 scale where 0 is no effect and 100 is complete control
# Method in brief: as §1
# Kochia (Kochia scoparia) [8] = test: Test A postemergence; conditions: for Kochia plant response rating: 125 g ai/ha, postemergence, visual injury rating on 0 to 100 scale (0 no effect, 100 complete control), approx. 10 d; for Plant response rating, Kochia: Postemergence, 500 g ai/ha, 0 to 100 scale where 0 is no effect and 100 is complete control
# Method in brief: as §1
# [9] = test system: barnyardgrass (Echinochloa crus-galli); test: Test A postemergence; conditions: postemergence; for Barnyardgrass plant response rating: 125 g ai/ha, visual injury rating on 0 to 100 scale (0 no effect, 100 complete control), approx. 10 d; for Plant response rating, Barnyardgrass: 500 g ai/ha, 0 to 100 scale, 0 no effect, 100 complete control
# Method in brief: as §1
# [10] = test system: blackgrass (Alopecurus myosuroides); test: Test A postemergence; conditions: postemergence; for Blackgrass plant response rating: 125 g ai/ha, visual injury rating on 0 to 100 scale (0 no effect, 100 complete control), approx. 10 d; for Plant response rating, Blackgrass: 500 g ai/ha, 0 to 100 scale, 0 no effect, 100 complete control
# Method in brief: as §1
# corn (Zea mays) = test: Test A postemergence; conditions: postemergence; for Corn plant response rating: 125 g ai/ha, visual injury rating on 0 to 100 scale (0 no effect, 100 complete control), approx. 10 d; for Plant response rating, Corn: 500 g ai/ha, 0 to 100 scale, 0 no effect, 100 complete control
# Method in brief: as §1
# [11] = test system: giant foxtail (Setaria faberii); test: Test A postemergence; conditions: for Foxtail, Giant plant response rating: 125 g ai/ha, postemergence, visual injury rating on 0 to 100 scale (0 no effect, 100 complete control), approx. 10 d; for Plant response rating, Foxtail, Giant: Postemergence, 500 g ai/ha, 0 to 100 scale where 0 is no effect and 100 is complete control
# Method in brief: as §1
# [12] = test system: pigweed (Amaranthus retroflexus); test: Test A postemergence; conditions: for Pigweed plant response rating: 125 g ai/ha, postemergence, visual injury rating on 0 to 100 scale (0 no effect, 100 complete control), approx. 10 d; for Plant response rating, Pigweed: Postemergence, 500 g ai/ha, 0 to 100 scale where 0 is no effect and 100 is complete control
# Method in brief: as §1
# [13] = test system: ragweed (common ragweed, Ambrosia elatior); test: Test A postemergence; conditions: for Ragweed plant response rating: 125 g ai/ha, postemergence, visual injury rating on 0 to 100 scale (0 no effect, 100 complete control), approx. 10 d; for Plant response rating, Ragweed: Postemergence, 500 g ai/ha, 0 to 100 scale where 0 is no effect and 100 is complete control
# Method in brief: as §1
# [14] = test system: ryegrass, Italian (Italian ryegrass, Lolium multiflorum); test: Test A postemergence; conditions: for Ryegrass, Italian plant response rating: 125 g ai/ha, postemergence, visual injury rating on 0 to 100 scale (0 no effect, 100 complete control), approx. 10 d; for Plant response rating, Ryegrass, Italian: Postemergence, 500 g ai/ha, 0 to 100 scale where 0 is no effect and 100 is complete control
# Method in brief: as §1
# [15] = test system: wheat (Triticum aestivum); test: Test A postemergence; conditions: for Wheat plant response rating: 125 g ai/ha, postemergence, visual injury rating on 0 to 100 scale (0 no effect, 100 complete control), approx. 10 d; for Plant response rating, Wheat: Postemergence, 500 g ai/ha, 0 to 100 scale where 0 is no effect and 100 is complete control
# Method in brief: as §1
# [16] = test system: barnyardgrass (Echinochloa crus-galli); test: Test B flooded paddy test; conditions: Flood, 250 g ai/ha; 0 to 100 scale where 0 is no effect and 100 is complete control; 13 to 15 d
# Method in brief: (§2)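 Rating scale 0–100 (visual, vs untreated controls) after a 13–15 d greenhouse period; application to the flood layer, 3 cm above soil and maintained; plants at 2-leaf stage when treated.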
# [17] = test system: ducksalad (Heteranthera limosa); test: Test B flooded paddy test; conditions: Flood, 250 g ai/ha; 0 to 100 scale where 0 is no effect and 100 is complete control; 13 to 15 d
# Method in brief: as §2
# rice (Oryra sativa) = test: Test B flooded paddy test; conditions: Flood, 250 g ai/ha; 0 to 100 scale where 0 is no effect and 100 is complete control; 13 to 15 d
# Method in brief: as §2
# [18] = test system: sedge, umbrella (small-flower umbrella sedge, Cyperus difformis); test: Test B flooded paddy test; conditions: Flood, 250 g ai/ha; 0 to 100 scale where 0 is no effect and 100 is complete control; 13 to 15 d
# Method in brief: as §2
structure (smiles),measurement,setting,value
CN1CC(c2ccc(C(F)(F)F)cc2F)C(C(=O)Nc2cccc(F)c2F)C1=O (stereo not drawn) [Compound 472],"Plant response rating, Kochia",Kochia (Kochia scoparia) [1],80
same,"Kochia plant response rating (0 to 100 scale, 0 is no effect, 100 is complete control)",Kochia (Kochia scoparia) [1],80
same,"Plant response rating, Barnyardgrass",[2],90
same,"Barnyardgrass plant response rating (0 to 100 scale, 0 is no effect, 100 is complete control)",[2],90
same,"Plant response rating, Foxtail, Giant",[3],90
same,"Foxtail, Giant plant response rating (0 to 100 scale, 0 is no effect, 100 is complete control)",[3],90
same,"Plant response rating, Pigweed",[4],80
same,"Pigweed plant response rating (0 to 100 scale, 0 is no effect, 100 is complete control)",[4],90
same,"Plant response rating, Ragweed",[5],0
same,"Ragweed plant response rating (0 to 100 scale, 0 is no effect, 100 is complete control)",[5],50
same,"Plant response rating, Ryegrass, Italian",[6],50
same,"Ryegrass, Italian plant response rating (0 to 100 scale, 0 is no effect, 100 is complete control)",[6],80
same,Galium plant response rating,[7],50
same,"Plant response rating, Galium",[7],50
same,Kochia plant response rating,Kochia (Kochia scoparia) [8],60
same,"Plant response rating, Kochia",Kochia (Kochia scoparia) [8],70
same,Barnyardgrass plant response rating,[9],90
same,"Plant response rating, Barnyardgrass",[9],90
same,Blackgrass plant response rating,[10],30
same,"Plant response rating, Blackgrass",[10],60
same,Corn plant response rating,corn (Zea mays),40
same,"Plant response rating, Corn",corn (Zea mays),80
same,"Foxtail, Giant plant response rating",[11],80
same,"Plant response rating, Foxtail, Giant",[11],90
same,Pigweed plant response rating,[12],60
same,"Plant response rating, Pigweed",[12],60
same,Ragweed plant response rating,[13],0
same,"Plant response rating, Ragweed",[13],0
same,"Ryegrass, Italian plant response rating",[14],40
same,"Plant response rating, Ryegrass, Italian",[14],60
same,Wheat plant response rating,[15],30
same,"Plant response rating, Wheat",[15],60
same,"Plant response rating, Barnyardgrass",[16],60
same,"Plant response rating, Ducksalad",[17],75
same,"Plant response rating, Rice",rice (Oryra sativa),20
same,"Plant response rating, Sedge, Umbrella",[18],0
CN1CC(c2ccc(C(F)(F)F)cc2F)C(C(=O)Nc2ccccc2F)C1=O (stereo not drawn) [Compound 476],"Plant response rating, Kochia",Kochia (Kochia scoparia) [1],50
same,"Kochia plant response rating (0 to 100 scale, 0 is no effect, 100 is complete control)",Kochia (Kochia scoparia) [1],70
same,"Plant response rating, Barnyardgrass",[2],90
same,"Barnyardgrass plant response rating (0 to 100 scale, 0 is no effect, 100 is complete control)",[2],90
same,"Plant response rating, Foxtail, Giant",[3],90
same,"Foxtail, Giant plant response rating (0 to 100 scale, 0 is no effect, 100 is complete control)",[3],100
same,"Plant response rating, Pigweed",[4],30
same,"Pigweed plant response rating (0 to 100 scale, 0 is no effect, 100 is complete control)",[4],80
same,"Plant response rating, Ragweed",[5],0
same,"Ragweed plant response rating (0 to 100 scale, 0 is no effect, 100 is complete control)",[5],60
same,"Plant response rating, Ryegrass, Italian",[6],0
same,"Ryegrass, Italian plant response rating (0 to 100 scale, 0 is no effect, 100 is complete control)",[6],40
same,Galium plant response rating,[7],30
same,"Plant response rating, Galium",[7],60
same,Kochia plant response rating,Kochia (Kochia scoparia) [8],30
same,"Plant response rating, Kochia",Kochia (Kochia scoparia) [8],60
same,Barnyardgrass plant response rating,[9],90
same,"Plant response rating, Barnyardgrass",[9],90
same,Blackgrass plant response rating,[10],20
same,"Plant response rating, Blackgrass",[10],50
same,Corn plant response rating,corn (Zea mays),0
same,"Plant response rating, Corn",corn (Zea mays),30
same,"Foxtail, Giant plant response rating",[11],80
same,"Plant response rating, Foxtail, Giant",[11],80
same,Pigweed plant response rating,[12],20
same,"Plant response rating, Pigweed",[12],40
same,Ragweed plant response rating,[13],0
same,"Plant response rating, Ragweed",[13],0
same,"Ryegrass, Italian plant response rating",[14],30
same,"Plant response rating, Ryegrass, Italian",[14],40
same,Wheat plant response rating,[15],0
same,"Plant response rating, Wheat",[15],30
same,"Plant response rating, Barnyardgrass",[16],0
same,"Plant response rating, Ducksalad",[17],80
same,"Plant response rating, Rice",rice (Oryra sativa),0
same,"Plant response rating, Sedge, Umbrella",[18],0
CC(C)=CCN1CC(c2cccc(C(F)(F)F)c2)C(C(=O)Nc2ccccc2F)C1=O (stereo not drawn) [Compound 478],"Plant response rating, Kochia",Kochia (Kochia scoparia) [1],0
same,"Kochia plant response rating (0 to 100 scale, 0 is no effect, 100 is complete control)",Kochia (Kochia scoparia) [1],0
same,"Plant response rating, Barnyardgrass",[2],20
same,"Barnyardgrass plant response rating (0 to 100 scale, 0 is no effect, 100 is complete control)",[2],60
same,"Plant response rating, Foxtail, Giant",[3],70
same,"Foxtail, Giant plant response rating (0 to 100 scale, 0 is no effect, 100 is complete control)",[3],80
same,"Plant response rating, Pigweed",[4],0
same,"Pigweed plant response rating (0 to 100 scale, 0 is no effect, 100 is complete control)",[4],0
same,"Plant response rating, Ragweed",[5],0
same,"Ragweed plant response rating (0 to 100 scale, 0 is no effect, 100 is complete control)",[5],0
same,"Plant response rating, Ryegrass, Italian",[6],0
same,"Ryegrass, Italian plant response rating (0 to 100 scale, 0 is no effect, 100 is complete control)",[6],0
same,Galium plant response rating,[7],0
same,"Plant response rating, Galium",[7],0
same,Kochia plant response rating,Kochia (Kochia scoparia) [8],0
same,"Plant response rating, Kochia",Kochia (Kochia scoparia) [8],0
same,Barnyardgrass plant response rating,[9],30
same,"Plant response rating, Barnyardgrass",[9],60
same,Blackgrass plant response rating,[10],0
same,"Plant response rating, Blackgrass",[10],20
same,Corn plant response rating,corn (Zea mays),0
same,"Plant response rating, Corn",corn (Zea mays),0
same,"Foxtail, Giant plant response rating",[11],20
same,"Plant response rating, Foxtail, Giant",[11],60
same,Pigweed plant response rating,[12],0
same,"Plant response rating, Pigweed",[12],0
same,Ragweed plant response rating,[13],0
same,"Plant response rating, Ragweed",[13],0
same,"Ryegrass, Italian plant response rating",[14],0
same,"Plant response rating, Ryegrass, Italian",[14],20
same,Wheat plant response rating,[15],0
same,"Plant response rating, Wheat",[15],20
same,"Plant response rating, Barnyardgrass",[16],0
same,"Plant response rating, Ducksalad",[17],0
same,"Plant response rating, Rice",rice (Oryra sativa),0
same,"Plant response rating, Sedge, Umbrella",[18],0
